row,SMILES,melting point
1,CC(C)(C)N(CC(=O)Nc1n[nH]c(=S)s1)C(=O)C(Cc1ccc(OCc2ccccc2)cc1)NC(=O)OCc1ccccc1 (configuration not stated),146 °C
2,Cc1ncc(C#N)c(Nc2ccc3[nH]ccc3c2C)c1-c1cc2cc(C=O)ccc2o1,168 to 169 °C
3,CC1(C2CCC3C4CCC5CC=CCC5(C)C4C(O)CC32C)OCCO1 (configuration not stated),141 to 145 °C
4,CS(=O)(=O)c1ccc(-c2cnn(-c3ccc(C(=O)n4cccc4)cc3)c(=O)c2-c2ccc(F)cc2)cc1,229 to 231 °C
5,COc1ccc2c(CCN3CC=C(c4c[nH]c5ccccc45)CC3)coc2c1,54 °C
6,Cc1cc(-n2ccnc2)c2cccc(OCc3c(Cl)ccc(S(=O)(=O)N4CCC[C@H]4C(=O)NCc4ccccn4)c3Cl)c2n1,102 °C
7,CC(=O)N1N=C(c2ccc(NC(=O)CCl)cc2)c2cc3c(cc2CC1C)OCO3 (configuration not stated),139 to 140 °C
8,CCn1c(=N)c(-c2ccc3ccccc3c2)cc2cnc(Nc3ccccc3)nc21,236 to 242 °C
9,C=C(C)Cc1cc(C)c2c(c1O)C(=O)CC2,62.5 to 64 °C
10,CC1Cc2cc(F)c(F)cc2C1=O (configuration not stated),66 to 68 °C
11,CCN=C(SC)N(C)Cc1ccc(Cl)nc1,132 to 133 °C
12,c1cc(N2CCCC2)ccc1CC12CC3CC(CC(C3)C1)C2,147 to 148 °C
13,OCC(=C(c1ccc(F)cc1)c1ccc(F)cc1)c1nnn(C(c2ccccc2)(c2ccccc2)c2ccccc2)n1,176 to 178 °C
14,CCCO[C@@H]1C[C@@H](C(=O)NC)N(S(=O)(=O)c2ccc(Cl)c(COc3cccc4c(-n5ccnc5)cc(C)nc34)c2Cl)C1,84 °C
15,Cc1cc(OCc2oc(-c3ccc(C(F)(F)F)cc3)nc2C)ccc1CCC(=O)O,113 to 115 °C
16,CCCCCc1ccc(-c2ccc(-c3ccc(CC)cc3)cc2F)s1,44 °C
17,O=C1CCC(c2ccc3[nH]c(-c4ccc(-n5ccnc5)cc4)cc3c2)=NN1,295 to 298 °C
18,COc1cc2c(Nc3ccc4cn[nH]c4c3)c(C#N)cnc2cc1OCCN(C)C,218 to 219 °C
19,Cc1nc(N)sc1S(=O)(=O)N1CCN(C)CC1,188 °C
20,COP(=S)(OC)SCc1nc2sccn2c(=O)c1Cl,125 to 130 °C
21,Cc1ccc(C(=O)Nc2ccccc2N2CCN(Cc3ccc[nH]3)CC2)c(-c2ccc(C(F)(F)F)cc2)c1,196 to 198 °C
22,CSc1cc(-n2ncc(-c3ccc(S(C)(=O)=O)cc3)c(-c3ccc(F)cc3)c2=O)ccc1F,105 to 107 °C
23,Oc1ccc(-c2cc3cc(O)ccc3o2)c(-c2ccccc2)c1,167 to 170 °C
24,COc1cc(N2[C@H](C)C[C@](C)(O)[C@@H]2C)ccc1C#N,121 to 123 °C
25,CCOC=Nc1c(S(C)=O)c(C#N)nn1-c1c(Cl)cc(C(F)(F)F)cc1Cl (configuration not stated),93 to 95 °C

row,SMILES,melting point
1,Nc1ncnc2c1c(-c1ccc(Oc3ccccc3)cc1)cn2C1CCCC1,178 to 179 °C
2,N#CC(=Cc1ccc(Cl)cc1)c1c(Cl)cc(N2N=CCNC2=O)cc1Cl,83 to 85 °C
3,O=c1oc(-c2ccccc2)cc(O)c1SCCCCc1ccccc1,103 to 105 °C
4,c1cnnc(N=C2SC[C@@H]3Cc4ccccc4CN23)c1,140 to 142 °C
5,NCC1CC(CCC(=O)O)=NO1 (configuration not stated),201 °C
6,C=CCn1c(CC)nc2nc3cc(Cl)ccc3nc21,117 to 121 °C
7,CC=C(C(=O)OC(c1ccccc1)c1ccccc1)N1C(=O)[C@@H]2N=C(Cc3ccccc3)O[C@@H]21,104 to 106 °C
8,FC(F)(F)C1(c2cc(Cl)cc(Cl)c2)CC(c2ccc(-n3cccn3)cc2)=NO1 (configuration not stated),174 to 175 °C
9,CCCCc1nn(-c2ccc([N+](=O)[O-])cc2C(F)(F)F)c(=O)n1Cc1ccc(-c2ccccc2S(=O)(=O)NC(C)(C)C)cc1,> 78 °C
10,O=C(O)c1ccc(C23CC4CC(C2)CC(c2ccc(C(=O)O)cc2)(C4)C3)cc1,304 to 306 °C
11,Cc1ccc(C)n1-c1ccc(C2(C#N)CCCC2)cc1,117 to 120 °C
12,CCCCc1ncc(/C=C(/C(=O)O)C(Cc2ccccc2)c2cccs2)n1Cc1ccccc1Cl (configuration not stated),200 to 202 °C
13,COC(COc1cc(-n2ncc(C(F)(F)F)c(C)c2=O)c(F)cc1Cl)OC,86 °C
14,CCNC(=C[N+](=O)[O-])NCCSCc1[nH]cnc1C,171 to 172 °C
15,Cc1oc(-c2ccccc2)nc1/C=C/c1ccc(COc2ccccc2CC(=O)O)cc1,189 to 190 °C
16,ClCCCc1nnnn1C1CCCCC1,82 to 85 °C
17,Cc1nc(C=O)c2n1-c1ccc(Cl)cc1C(c1ccccc1)=NC2,218 to 220 °C
18,CSC1=CC2=CN(S)NN2C(SC)=N1,250 to 252 °C
19,CC(C=CC=C(C)C=CC1C(C)=CC(=O)CC1(C)C)=CC=CC=C(C)C=CC=C(C)C=CC1C(C)=CC(=O)CC1(C)C (configuration not stated),185 to 187 °C
20,COc1cn(-c2cccc(N3CCOCC3)c2F)nc(-c2ccnn2-c2ccccc2)c1=O,187 to 189 °C
21,Cn1c(=O)c2c(OCc3ccccc3)cccc2n2cnc(-c3noc(C4CC4)n3)c12,221 to 224 °C
22,Cc1cccc(CC(NC(=O)C(c2ccccc2)c2ccccc2)C(=O)NC(C#N)CCOc2cccc(C(=O)O)c2)c1 (configuration not stated),169 to 170 °C
23,OC(c1ccccc1)C1CCN(CCc2ccccc2)CC1 (configuration not stated),125 to 128 °C
24,N#Cc1ccc(COCCn2cnc3c(N)nc4ccccc4c32)cc1,238 to 239 °C
25,CCSc1ccc(C(=O)NCc2ccc3c(c2)C(=O)N(C2(C)CCC(=O)NC2=O)C3=O)nn1 (configuration not stated),160 to 162 °C

# The next lines start with the values.
row,melting point,SMILES
1,191 to 192 °C,CC(C)CNS(=O)(=O)c1ccc2c(c1)C=C(C(=O)O)C(C(F)(F)F)O2 (configuration not stated)
2,150 to 152 °C,CC(C)n1cnc2c(Nc3ccccn3)nc(F)nc21
3,98 to 100 °C,COC(=O)c1cc(Oc2cccnc2)c(C(F)(F)F)cc1[N+](=O)[O-]
4,119 to 120 °C,CCOC(=O)Cc1c(C)n(Cc2ccc(C(C)(C)C)cc2)c2ccc(OCc3csc(-c4ccccc4)n3)cc12
5,134 °C,CCOC(=O)C1=C(C)N2CCNC2=C(C(=O)OCC)C1c1cccs1 (configuration not stated)
6,262 to 264 °C,Oc1ccc2c(-c3cccc4ccc(O)cc34)noc2c1
7,123 to 129 °C,CCCN(CCCc1coc2c(OC)cccc12)C1COc2c(F)ccc(C(N)=O)c2C1 (configuration not stated)
8,106 to 107 °C,CCC(C)(C)c1cc(C(=O)COc2ccc(C=O)cc2OC)cc(C(C)(C)CC)c1O
9,172 to 174 °C,CC(=O)OCC(=O)c1cc2c(s1)SCCc1cc(=O)n(-c3ccc(Cl)cc3)nc1-2
10,87 to 89 °C,CCCc1c(OCCCCCC(=O)NCCCCc2cncnc2)ccc(C(C)=O)c1O
11,143 to 145 °C,N#Cc1ncc(-c2ccccc2)nc1Cl
12,102 °C,Cc1ccc(S(=O)(=O)N(C)c2ccc(Cl)cc2N)cc1
13,107 °C,COc1ccc(C=C2C(=O)C3(C)CCC2C3(C)C)cc1OC (configuration not stated)
14,210 °C,O=C1COc2ccc(C#Cc3ccccn3)cc2N1
15,144 to 145 °C,N#CCC=Cc1ccccc1S(N)(=O)=O
16,66 to 68 °C,C=CCOc1cc(NC(=O)OCC)c(F)cc1Br
17,184 to 185 °C,COc1ccc(C(=Cc2cc3c(cc2[N+](=O)[O-])OCO3)C(=O)O)cc1
18,83 to 84 °C,O=C(O)Cc1cccc(OCCCCl)c1
19,173 to 175 °C,COC(=O)C1=C(C)NC(C)=C(C(=O)OC)C1c1ccccc1-c1cccs1
20,202 to 203 °C,Cc1cccc2c(=O)[nH]c(N3CCN(CCCCN4CCN(C)CC4)CC3)cc12
21,146 to 147 °C,COC(=O)c1cc(-c2nc(COc3ccc(CCl)cc3OC)c(C)o2)ccc1OS(C)(=O)=O
22,233 to 235 °C,CC(=O)NC(Cc1cc(F)c(F)cc1F)Cc1nnc2n1ccc1ncnn12 (configuration not stated)
23,76 to 78 °C,COc1ccc2cc(C(C)C(=O)OC/C=C\COC(=O)OC(C)O[N+](=O)[O-])ccc2c1 (configuration not stated)
24,72 to 78 °C,O=C(C(=O)c1ccccc1Br)c1ccc(F)cc1

row,melting point,SMILES
1,109 to 111 °C,Cc1cccc(NC(=O)C(C)Oc2ccc(Oc3ccc(C#N)cc3)cc2)n1 (configuration not stated)
2,103 to 105 °C,COc1cc(I)c(O)c(C=O)c1
3,115 to 116 °C,CNC(=O)N(N=Cc1ccccc1)c1nnc(C(C)(C)C)s1
4,267 to 270 °C,COc1cc(Nc2c(C#N)cnc3cc(NC(C)=O)c(OC)cc23)c(Cl)cc1Cl
5,251 to 252 °C,O=C(CC(=O)c1ccccc1O)c1cc(O)c(O)c([N+](=O)[O-])c1
6,296 to 299 °C,Cc1ccccc1Sc1c(O)c2ccc(Cl)cc2[nH]c1=O
7,222 to 224 °C,Cn1cc(S(C)(=O)=O)c(=O)c2ccc(F)cc21
8,248 to 250 °C,Cc1ccc(N2CN(c3ccccc3)C3=NN=CC3=C2N)cc1
9,64 °C,CN(C)CCNC(=O)c1cccc(-c2nnc(CSCCOc3ccccc3)o2)c1
10,150 to 151 °C,CS(=O)(=O)N1CCC(C(=O)Nc2ccccc2Oc2ccc(Cl)cc2Cl)CC1
11,119 to 121 °C,O=C(O)/C(=C/C1CCCCC1)c1ccc(F)c(F)c1
12,146 to 148 °C,CCCCCCCCCCCn1ncnc1NC(=O)Nc1c(C(C)C)cccc1C(C)C
13,185 to 186 °C,COc1ccc(N2CCN(Cc3n[nH]c4c(I)cccc34)CC2)cc1
14,256 °C,CC(=O)Nc1ccc(N2CCN(c3ccc(O)cc3)CC2)cc1
15,195 to 196 °C,O=C(O)c1cccn1-c1ccc(F)cc1
16,106 to 108 °C,COc1ccc2c(n1)C1(CO2)C(=O)N(Cc2ccc(C(F)(F)F)o2)c2cccc(Cl)c21 (configuration not stated)
17,62 to 63 °C,COC(=O)c1cccc(N)c1N
18,105 to 107 °C,O=C(O[C@H]1Cc2c(O)cc(O)cc2O[C@@H]1c1ccc(O)c(O)c1)c1cc(O)c(O)c(O)c1
19,73 to 74 °C,CCOCc1cc2ccccc2oc1=Nc1ccc(Br)cc1
20,163 to 165 °C,O=C(Nc1c(C(O)(C(F)(F)F)C(F)(F)F)ccc2ccccc12)C1CC1
21,227 °C,COC(=O)CCCOc1cc(C(=O)O)ccc1NC(=O)NC(=O)c1cc(F)c(F)cc1Cl
22,196 to 198 °C,CCCCc1nc2c(N)nc3ccccc3c2n1CC(C)(C)OCCS(C)(=O)=O
23,93 to 94 °C,COC(=O)C1=CCC2C(CCC3C(C)(C)CCCC23C)C(=O)C1 (configuration not stated)
